In ChEMBL document CHEMBL1155854, “Conformationally constrained farnesoid X receptor (FXR) agonists: Naphthoic acid-based analogs of GW 4064” (Bioorg Med Chem Lett, 2008):
Active and inactive are the calls of the source. No cut-off for these calls is given here.

Experiments:
[1] = molecular target: T1, Cytochrome P450 1A2 (Homo sapiens, UniProt P05177); experiment: Inhibition of CYP1A2 in pooled human liver microsome; format: ADME, microsomes
T1 sequence (P05177 whole entry): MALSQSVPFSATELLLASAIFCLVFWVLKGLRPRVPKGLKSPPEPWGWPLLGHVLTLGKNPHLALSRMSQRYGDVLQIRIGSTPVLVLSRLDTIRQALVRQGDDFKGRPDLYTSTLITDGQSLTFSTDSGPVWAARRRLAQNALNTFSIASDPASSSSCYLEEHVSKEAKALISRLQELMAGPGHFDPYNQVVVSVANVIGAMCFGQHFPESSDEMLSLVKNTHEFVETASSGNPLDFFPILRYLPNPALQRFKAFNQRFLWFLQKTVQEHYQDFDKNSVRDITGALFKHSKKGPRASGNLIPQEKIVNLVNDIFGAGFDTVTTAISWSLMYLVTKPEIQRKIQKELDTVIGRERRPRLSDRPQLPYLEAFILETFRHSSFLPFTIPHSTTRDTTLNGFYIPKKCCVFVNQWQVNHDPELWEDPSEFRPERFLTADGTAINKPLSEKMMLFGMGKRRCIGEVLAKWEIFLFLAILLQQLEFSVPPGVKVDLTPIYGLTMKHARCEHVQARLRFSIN

[2] = Apparent permeability in MDCK cells; format: ADME, cell-based, Canis lupus familiaris; details: dog
[3] = Clearance in iv dosed mouse; format: ADME, organism-based; details: in vivo
[4] = test system: Rattus norvegicus; experiment: Reduction of serum alanine aminotransferase level in alpha-naphthyl-isothiocyanate-induced rat acute cholestasis model at 100 to 300 mg/kg, po bid for 4 days dosed before 2 days induction by alpha-naphthyl-isothiocyanate; format: functional, organism-based
[5] = test system: Rattus norvegicus; experiment: Reduction of serum aspartate aminotransferase level in alpha-naphthyl-isothiocyanate-induced rat acute cholestasis model at 100 to 300 mg/kg, po bid for 4 days dosed before 2 days induction by alpha-naphthyl-isothiocyanate; format: functional, organism-based
[6] = molecular target: T2, Oxysterols receptor LXR-beta (Homo sapiens, UniProt P55055); experiment: Agonist activity at LXRbeta by transient transfection assay; format: functional
T2 sequence (P55055 whole entry): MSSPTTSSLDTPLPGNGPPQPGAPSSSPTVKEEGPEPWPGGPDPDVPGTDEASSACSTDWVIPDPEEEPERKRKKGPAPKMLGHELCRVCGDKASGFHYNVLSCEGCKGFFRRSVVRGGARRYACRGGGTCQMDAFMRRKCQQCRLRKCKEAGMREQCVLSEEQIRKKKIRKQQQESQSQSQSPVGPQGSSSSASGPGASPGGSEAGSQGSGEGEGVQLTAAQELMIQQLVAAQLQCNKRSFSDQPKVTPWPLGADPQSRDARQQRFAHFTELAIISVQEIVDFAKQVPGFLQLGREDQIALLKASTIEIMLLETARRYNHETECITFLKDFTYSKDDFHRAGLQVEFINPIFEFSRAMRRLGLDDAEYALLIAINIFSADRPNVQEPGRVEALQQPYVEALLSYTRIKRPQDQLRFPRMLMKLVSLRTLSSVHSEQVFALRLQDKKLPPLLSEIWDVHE

[7] = molecular target: T3, Bile acid receptor (Homo sapiens) (UniProt Q96RI1); experiment: Agonist activity at FXR assessed as receptor-SRC-1 peptide interaction by FRET assay relative to GW-4064; format: functional
T3 sequence (whole entry): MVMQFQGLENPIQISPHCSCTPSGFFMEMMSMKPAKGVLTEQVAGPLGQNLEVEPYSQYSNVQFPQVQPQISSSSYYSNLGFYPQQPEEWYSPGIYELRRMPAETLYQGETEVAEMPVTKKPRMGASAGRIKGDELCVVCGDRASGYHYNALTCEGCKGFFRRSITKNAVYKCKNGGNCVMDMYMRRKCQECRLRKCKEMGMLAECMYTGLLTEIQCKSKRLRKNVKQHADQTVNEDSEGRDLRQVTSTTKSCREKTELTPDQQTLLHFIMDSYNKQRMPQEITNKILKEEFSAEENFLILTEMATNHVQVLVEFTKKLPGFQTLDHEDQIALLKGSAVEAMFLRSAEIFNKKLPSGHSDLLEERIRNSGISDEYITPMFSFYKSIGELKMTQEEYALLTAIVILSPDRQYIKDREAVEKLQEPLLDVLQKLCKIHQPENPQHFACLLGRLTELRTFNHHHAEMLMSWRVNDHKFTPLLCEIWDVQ

[8] = molecular target: T4, Peroxisome proliferator-activated receptor alpha (Homo sapiens, UniProt Q07869); experiment: Agonist activity at PPARalpha by SPA assay; format: functional
T4 sequence (Q07869 whole entry): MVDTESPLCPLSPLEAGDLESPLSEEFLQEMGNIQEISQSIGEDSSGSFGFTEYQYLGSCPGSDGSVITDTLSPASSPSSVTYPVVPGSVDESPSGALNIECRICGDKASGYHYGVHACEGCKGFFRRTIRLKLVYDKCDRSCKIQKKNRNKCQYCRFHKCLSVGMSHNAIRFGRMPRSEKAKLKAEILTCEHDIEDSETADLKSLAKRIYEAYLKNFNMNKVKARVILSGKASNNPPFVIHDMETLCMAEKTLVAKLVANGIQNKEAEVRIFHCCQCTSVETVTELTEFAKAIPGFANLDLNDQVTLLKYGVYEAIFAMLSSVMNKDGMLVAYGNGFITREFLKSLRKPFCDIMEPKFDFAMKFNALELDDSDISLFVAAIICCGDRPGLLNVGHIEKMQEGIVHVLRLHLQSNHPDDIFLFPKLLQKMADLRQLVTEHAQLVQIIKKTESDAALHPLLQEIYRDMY

[9] = molecular target: T5, Peroxisome proliferator-activated receptor gamma (Homo sapiens, UniProt P37231); experiment: Agonist activity at PPARgamma by SPA assay; format: functional
T5 sequence (P37231 whole entry): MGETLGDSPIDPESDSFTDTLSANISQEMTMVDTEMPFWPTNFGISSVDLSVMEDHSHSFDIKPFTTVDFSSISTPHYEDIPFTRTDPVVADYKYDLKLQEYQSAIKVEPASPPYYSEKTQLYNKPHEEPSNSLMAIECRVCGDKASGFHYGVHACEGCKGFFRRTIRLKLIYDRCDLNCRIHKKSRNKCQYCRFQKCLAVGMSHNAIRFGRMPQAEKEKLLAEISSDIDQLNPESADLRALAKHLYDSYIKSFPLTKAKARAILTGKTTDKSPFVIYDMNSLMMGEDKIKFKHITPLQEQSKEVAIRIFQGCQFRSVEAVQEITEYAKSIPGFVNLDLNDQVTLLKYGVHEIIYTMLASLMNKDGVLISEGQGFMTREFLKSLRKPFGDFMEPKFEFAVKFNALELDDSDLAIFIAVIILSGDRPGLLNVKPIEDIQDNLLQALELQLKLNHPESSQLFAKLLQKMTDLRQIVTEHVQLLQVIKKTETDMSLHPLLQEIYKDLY

Work on `CC(C)c1onc(-c2c(Cl)cccc2Cl)c1COc1ccc(-c2ccc3c(C(=O)O)cccc3c2)cc1` yielded an IC50 [1] of 23 µM, a Papp [2] of 190 nm/s and a clearance [3] of 0.42 L/h/kg. For the same molecule, the Activity [4] was “Active”, the Activity [5] was “Active” and the XC50 [6] was over 20 µM. It also gave a %max [7] of 134%, an XC50 [8] of over 10 µM and an XC50 [9] of over 10 µM.
